Experimental data taken from patent publication US12195490B2, “STRAD-binding agents and uses thereof” (The Regents of the University of California, priority 2020, dated 2025).

test system: ACHN cell line; experiment: drug screen of the SelleckChem kinase inhibitor library with and without 5 uM SU-329, Cell-Titer Glo after 5 days; format: cell-based; details: not given

Compound | log2fc
N#CC(=C(/N)Sc1ccccc1N)/C(C#N)=C(\N)Sc1ccccc1N [U0126-EtOH, U0126, reference compound] | −0.3988

same assay, conditions: kinase inhibitor at 200 nM with and without 5 uM SU329; ACHN cell line; 5 days; Cell-Titer Glo

Compound | log2fc
O=C(Nc1c[nH]nc1-c1nc2ccc(CN3CCOCC3)cc2[nH]1)NC1CC1 [AT9283] | 2.163
Cc1cc2c(F)c(Oc3ncnn4cc(OC[C@@H](C)OC(=O)[C@H](C)N)c(C)c34)ccc2[nH]1 [Brivanib Alaninate (BMS-582664)] | 0.04321
CN(C)CCOc1ccc(-c2nc(-c3ccncc3)c(-c3ccc4c(c3)CC/C4=N\O)[nH]2)cc1 [SB590885] | 0.2113
O=C(O)c1ccc(-c2c[nH]c3ncc(-c4ccccc4)cc23)cc1C1CCCC1 [GSK650394] | 0.3205
C=CC(=O)Nc1cccc(Nc2nc(Nc3ccc(Oc4ccnc(C(=O)NC)c4)cc3)ncc2F)c1 [CNX-774] | −0.2519
COc1cc2c(c(OC)c1OC)-c1c(cc3c(c1OC)OCO3)CC(C)C(C)C2 (centres unmarked) [Schisandrin B (Sch B)] | 0.5674
COC(=O)c1ccc2c(c1)NC(=O)/C2=C(\Nc1ccc(N(C)C(=O)CN2CCN(C)CC2)cc1)c1ccccc1 [Nintedanib (BIBF 1120)] | 0.7859
Cc1cc(C(=O)NOCCO)c(Nc2ccc(I)cc2F)n(C)c1=O [AZD8330] | 0.5935
Cc1ccc(F)c(NC(=O)Nc2ccc(-c3cccc4[nH]nc(N)c34)cc2)c1 [Linifanib (ABT-869)] | −0.2483
C[C@@H](NC(=O)c1ncnc(N)c1Cl)c1ncc(C(=O)Nc2cc(C(F)(F)F)c(Cl)cn2)s1 [MLN2480] | 0.5916
Cc1cnc(Nc2ccc(N3CCN(C)CC3)cc2)nc1Nc1cccc(S(=O)(=O)NC(C)(C)C)c1 [TG101209] | −0.1573
Cn1cc(-c2ccc3ncc(Cc4ccc5ncccc5c4)n3n2)cn1 [NVP-BVU972] | 0.5846
O=c1cc(N2CCOCC2)oc2c(-c3ccccc3)cccc12 [LY294002] | 0.5337
Nc1nc(Nc2ccc(S(N)(=O)=O)cc2)nn1C(=O)c1c(F)cccc1F [JNJ-7706621] | 0.3857
O=C(c1ccc(Nc2nccc(-c3cc4ccccc4s3)n2)cc1)N1CCC(N2CCCC2)CC1 [IKK-16 (IKK Inhibitor VII)] | −0.1183
CCn1c2ccccc2c2cc(Nc3ccnc(NCCCN4CCOCC4)n3)ccc21 [EHop-016] | 0.1156
CC(C)CC(=O)Nc1n[nH]c2c1CN(C(=O)C1CCN(C)CC1)C2(C)C [PHA-793887] | −0.1187
CN1CCN(C2CCN(C(=O)Nc3cc(Oc4ccc(NC(=O)C5(C(=O)Nc6ccc(F)cc6)CC5)c(F)c4)ccn3)CC2)CC1 [Golvatinib (E7050)] | −0.1341
COc1ccc(-c2ccc3c(N4CCOC[C@@H]4C)nc(N4CCOC[C@@H]4C)nc3n2)cc1CO [AZD8055] | 0.1024
COc1cc2c(Oc3ccc4[nH]c(C)cc4c3F)ncnc2cc1OCCCN1CCCC1 [Cediranib (AZD2171)] | 0.01224
N#CC[C@H](C1CCCC1)n1cc(-c2ncnc3[nH]ccc23)cn1 [Ruxolitinib (INCB018424)] | −0.1253
C=CC(=O)Nc1ccc2ncnc(Nc3cccc(Br)c3)c2c1 [PD168393] | 0.5991
Cc1ccc(Nc2nccc(N(C)c3ccc4c(C)n(C)nc4c3)n2)cc1S(N)(=O)=O [Pazopanib] | −0.1316
CCCS(=O)(=O)Nc1ccc(F)c(C(=O)c2c[nH]c3ncc(Cl)cc23)c1F [PLX-4720] | −0.05066
C=CC(=O)Nc1cccc(Nc2nc(Nc3ccc(OCCOC)cc3)ncc2F)c1 [CC-292 (AVL-292)] | −0.2142
COc1cc(C(=O)NC2CCN(C)CC2)ccc1Nc1ncc2c(n1)N(C1CCCC1)CC(F)(F)C(=O)N2C [Ro3280] | 0.4269

Compound | log2fc
O=C1NC(=O)/C(=C/c2ccc(-c3ccc(F)cc3O)o2)S1 [AS-252424] | −0.1563
Cc1ccc(S(=O)(=O)/C=C/C#N)cc1 [BAY 11-7082, reference compound] | −0.1258
Cc1ccc(-c2nn(C(C)(C)C)c3ncnc(N)c23)cc1 [PP1] | 0.2956
CN1CCN(c2nc(C3=C(c4c[nH]c5ccccc45)C(=O)NC3=O)c3ccccc3n2)CC1 [Sotrastaurin] | 0.054
CC(C)n1nc(-c2cc3cc(O)ccc3[nH]2)c2c(N)ncnc21 [Torkinib (PP242)] | −0.3157
COc1cc2ncnc(Nc3ccc(F)c(Cl)c3)c2cc1OCCCN1CCOCC1 [Gefitinib (ZD1839)] | 0.4905
C[C@@]1(C(=O)Nc2ccc(F)nc2)CCCN1c1nc(Nc2cc(C3CC3)n[nH]2)c2cccn2n1 [BMS-754807] | −1.139
Nc1cccc(-c2cc3c(Oc4cccc(O)c4)ncnc3[nH]2)c1 [TWS119] | 0.52
O=c1[nH]c2ccc(Cl)cc2c(N[C@@H]2CN3CCC2CC3)c1-c1nc2ccccc2[nH]1 [CHIR-124] | 1.257
O=C(NCc1cccc(O)c1)Nc1nc(-c2ccncc2)cs1 [RKI-1447] | −0.8453
NC1(Cc2ccc(Cl)cc2)CCN(c2ncnc3[nH]ccc23)CC1 [CCT128930] | −0.2364
FC(F)c1nc2ccccc2n1-c1nc(N2CCOCC2)nc(N2CCOCC2)n1 [ZSTK474] | −0.8509
N#Cc1c(O)c2c(-c3ccc(-c4ccccc4O)cc3)csc2[nH]c1=O [A-769662] | 0.1798
CS(=O)(=O)CCNCc1ccc(-c2ccc3ncnc(Nc4ccc(OCc5cccc(F)c5)c(Cl)c4)c3c2)o1 [Lapatinib] | 0.9499
Cc1cc(CS(=O)(=O)c2ccccc2)cc(OCc2ccc(CN3CCC[C@@H]3CO)cc2)c1 [PF-543] | 0.8598
Cc1cc(Nc2cc(N3CCN(C)CC3)nc(/C=C/c3ccccc3)n2)n[nH]1 [ENMD-2076] | 0.6799
Cc1ccccc1-n1c(Cn2ncc3c(N)ncnc32)nc2cccc(C)c2c1=O [PIK-293] | 0.1249
Cc1ccc(NC(=O)c2cccc(N(C)C)c2)cc1NC(=O)c1ccc(O)cc1 [ZM 336372] | 0.2177
CCc1cccc(CC)c1NC(=O)N1Cc2[nH]nc(NC(=O)c3ccc(N4CCN(C)CC4)cc3)c2C1 [PHA-680632] | −0.4048
COc1ccc(COc2cc3oc(=O)c4cc(C(C)O)ccc4c3cc2OC)cc1 (centres unmarked) [Palomid 529 (P529)] | 0.3192
Cc1[nH]c(/C=C2\C(=O)Nc3ccccc32)c(C)c1CCC(=O)O [Orantinib (TSU-68, SU6668)] | −0.2487
Cc1cc(Nc2cc(CN3CCOCC3)c3nc(C)c(Cc4ccc(Cl)cc4F)n3n2)n[nH]1 [Gandotinib (LY2784544)] | 1.04
N#Cc1c(Oc2ccc(F)c(NC(=O)Cc3cccc(C(F)(F)F)c3)c2)ccc2nc(NC(=O)C3CC3)sc12 [TAK-632] | 0.4732
O=C(/C=C/c1ccc2ccccc2n1)c1ccncc1 [PFK15] | −0.9312
CCN1/C(=C/C(C)=O)Sc2ccc(OC)cc21 [TG003] | 0.4163
C[C@@H]1CCN(C(=O)CC#N)C[C@@H]1N(C)c1ncnc2[nH]ccc12.O=C(O)CC(O)(CC(=O)O)C(=O)O [Tofacitinib (CP-690550) Citrate] | 0.3512

Compound | log2fc
CN1CCN(c2cccc(Nc3nc4c(-c5ccc(S(C)(=O)=O)cc5)cccn4n3)c2)CC1 [CEP-33779] | −0.6078
FC(F)(F)c1ccc(/C=C/c2nc(COc3ccc(CCCCn4ccnn4)cc3)co2)cc1 [Mubritinib (TAK 165)] | 0.225
CC(C)n1nc(-c2ccc3oc(N)nc3c2)c2c(N)ncnc21 [INK 128 (MLN0128)] | −0.2018
NC(=O)c1cccc(-c2cc(Nc3ccc(OC(F)(F)F)cc3)ncn2)c1 [GNF-2] | 0.1337
CC(C)(C)c1cc(C=C(C#N)C#N)cc(C(C)(C)C)c1O [Tyrphostin 9] | −0.5358
COc1cc(Nc2ncc3c(n2)-c2ccc(Cl)cc2C(c2c(F)cccc2OC)=NC3)ccc1C(=O)O [Alisertib (MLN8237)] | 0.7052
CCOc1cc(N2CCC(O)CC2)ccc1Nc1ncc2c(n1)N(C)c1ccccc1C(=O)N2C [XMD8-92] | −0.09901
C[C@@H]1COC(Nc2ccc3ncnc(Nc4ccc(OCc5nccs5)c(Cl)c4)c3c2)=N1 [Varlitinib] | 0.7999
Clc1ccc(C2(c3ccc(-c4cn[nH]c4)cc3)CCNCC2)cc1 [AT7867] | −0.935
COC(=O)Nc1ccc(-c2nc(N3CCOCC3)c3cnn(C4CCN(C(=O)OC)CC4)c3n2)cc1 [WYE-354] | −1.143
COc1ccc2c(Oc3ccc(NC(=O)c4c(C)n(CC(C)(C)O)n(-c5ccccc5)c4=O)nc3)ccnc2c1 [AMG-458] | 0.0395
O=C(NCc1ccccc1)c1csc(Nc2ccncn2)n1 [Thiazovivin] | −0.4963
COc1ccccc1-c1cc(Nc2cccc(CS(N)(=O)=O)c2)ncn1 [LDC000067] | −0.05049
C[C@H](NC(=O)/C(C#N)=C/c1cccc(Br)n1)c1ccccc1 [WP1066] | −0.4551
CNc1nc(Nc2cnn([C@H]3CCN(C4COC4)C[C@@H]3F)c2Cl)ncc1C(F)(F)F [GNE-9605] | 0.4092
Cc1c(NC(=O)c2ccc(C(C)(C)C)cc2)cccc1-c1cn(C)c(=O)c(Nc2ccc(C(=O)N3CCOCC3)cc2)n1 [CGI1746] | 0.8939
O=c1ncn2nc(Sc3ccc(F)cc3F)ccc2c1-c1c(Cl)cccc1Cl [VX-745] | −0.2953
COc1ccc(-c2cc3c(C)nc(N)nc3n([C@H]3CC[C@H](OCCO)CC3)c2=O)cn1 [PF-04691502] | −0.5101
C[C@@H]1CN(CC(=O)Nc2ccc3c(c2)Cc2cccc(-c4cc(=O)cc(N5CCOCC5)o4)c2S3)C[C@H](C)O1 [KU-60019] | 0.886
N[C@@H]1CCCN(c2c(/C=C3\SC(=O)NC3=O)cccc2-c2ccccc2)C1 [AZD1208] | −0.4967
CC(C)(C)c1cc(NC(=O)Nc2ccc(-c3cn4c(n3)sc3cc(OCCN5CCOCC5)ccc34)cc2)no1 [Quizartinib (AC220)] | 0.278
C=CC(=O)Nc1ccc2ncnc(Nc3ccc(OCc4cccc(F)c4)c(Cl)c3)c2c1 [AST-1306, reference compound] | 0.0584
C[C@@H](N)[C@H]1CC[C@H](C(=O)Nc2ccncc2)CC1.Cl.Cl [Y-27632 2HCl] | −0.01003
Cc1ccc(NC(=O)c2cccc(C(C)(C)C#N)c2)cc1Nc1ccc2ncn(C)c(=O)c2c1 [AZ 628] | 0.4319
